Data taken from patent US10087156B2, “Methods and compositions related to retinoid receptor-selective pathway” (Sanford Burnham Prebys Medical Discovery Institute, priority 2010, dated 2018).

How the values were obtained:
HepG2 liver cancer cells = test: PARP cleavage and caspase-8 activation with TNFα by immunoblotting; assay type: cell-based; conditions: HepG2 cells, SR11237 1 μM, 1 hr pretreatment
Method: ZR-75-1 cells were treated with TNFα and/or Sulindac (75 μM) or K-80003 (50 μM) for 6 hr and analyzed by immunoblotting.
HepG2 cells cultured in medium with 1% FBS were treated with SR11237 (1 μM) for 1 hr, then TNFα (10 ng/ml) and/or Sulindac (75 μM) for 4 hr, and analyzed by immunoblotting. HepG2 cells transfected with control or RXRα siRNA were treated with TNFα and/or Sulindac and analyzed by immunoblotting.

COX = conditions: Haanen, 2001; cited from earlier work

## CC1(C)CCC(C)(C)c2cc(C3(c4ccc(C(=O)O)cc4)OCCO3)ccc21 [SR11237]
HepG2 liver cancer cells
  suppression of the apoptotic effect of Sulindac/TNFα combination: partially suppressed

## CC1=C(CC(=O)O)c2cc(F)ccc2/C1=C\c1ccc(S(C)(=O)=O)cc1 [sulindac sulfone]
COX
  COX-inhibiting activity: no COX-inhibiting activity

## CC1=C(CC(=O)O)c2cc(F)ccc2/C1=C/c1ccc([S+](C)[O-])cc1 (stereo not drawn) [sulindac sulfoxide]
COX
  COX-inhibiting activity: no COX-inhibiting activity
